Legend:
[1] = Column experiment (Example 3): nitrate-polluted well water passed through column filled with material; conditions: well water (nitrate nitrogen 14 mg/L) after column, passing time 5.5 hours, 21° C.
Text: FIG. 3 is a view showing the structure of a column experiment apparatus used for effecting the method of decreasing nitrate nitrogen and volatile organic compounds in Example 3. Here, the column is a vessel having a function of decreasing nitrate nitrogen and volatile organic compounds, and decreases nitrate nitrogen and volatile organic compounds by allowing groundwater such as well water and the like to pass. In Example 3, a resin column having a diameter of 28 cm and a height of 2 m was used.
Well water evacuated from a well 23 by a pump 24 flow into this column 21 through an introduction port 25 of the column 21. It is so constituted that well water which comes into with the experiment material 22 while rising in the column 21, is discharged from an outflow port 26 formed at the upper part of the column 21.
Column experiments were conducted as described below using the column experiment apparatus constituted as described above.
From already-provided well polluted with nitrate nitrogen (nitrate nitrogen concentration: 14 mg/L), well water was evacuated by a pump 24 and allowed to flow into the column 21. In Example 3, six resin columns having a diameter of 28 cm and a height of 2 m were used, and experiments were conducted on 12 kinds of experiment materials using the resin columns each twice.
In the examples, experiment materials of the present invention such as fatty acids and alcohols were filled in columns (column Nos. 1 to 8) and comparative materials of conventional technologies were filled in columns (column Nos. 9 to 12) for comparison, and the evacuated groundwater was passed through them. In these experiments, substantial filling heights of the experiment materials in the columns were all 1.8 m. The passing time of groundwater in the column was 5.5 hours, and the average environment temperature during the experiment period was 21° C.
The nitrate nitrogen concentration, ammonia nitrogen concentration and total carbon concentration of the well water after passing through the column 30 days after initiation of passing of well water which is experiment initiation were measured.

[2] = Well experiment in soil polluted with tetrachloroethylene (Example 8): analysis of water collected from the well; conditions: 30 kg added over 6 days, initial about 0.25 mg/L
Description: In the method of decreasing nitrate nitrogen and volatile organic compounds in Example 8, an experiment was conducted using a well provided in soil polluted with tetrachloroethylene.
It had been known by previous investigation that about 125 m^2 of the surface of soil was polluted, and a water-containing layer at a position 6 m below the ground surface was polluted. In this water-containing layer, the tetrachloroethylene concentration was about 0.25 mg/L.
30 kg of stearylamine was gradually added over 6 days through a well in the polluted soil, and the tetrachloroethylene concentration, total carbon concentration and total nitrogen concentration after 90 days were analyzed from water collected from the well.

## CCCCCCCCCCCCCCCCCCCCCC(=O)O [Behenic acid]
[1]
  Nitrate nitrogen concentration after 30 days: 1.8 mg/L

## CCCCCCCCCCCCCCO [Myristyl alcohol]
[1]
  Nitrate nitrogen concentration after 30 days: 2.5 mg/L

## OC[C@H]1O[C@@](CO)(O[C@H]2O[C@H](CO)[C@@H](O)[C@H](O)[C@H]2O)[C@@H](O)[C@@H]1O [Sucrose, reference compound]
[1]
  Nitrate nitrogen concentration after 30 days: 15.0 mg/L

## CCCCCCCCCCCCCCCCCCN [stearylamine]
[2]
  tetrachloroethylene concentration after 90 days: 0.08 mg/L

## CCCCCCCCCCCCCCCCCC(=O)OC [Methyl stearate]
[1]
  Nitrate nitrogen concentration after 30 days: 1.4 mg/L

## Sorbitan monomyristate
[1]
  Nitrate nitrogen concentration after 30 days: 1.6 mg/L

— patent publication US7030287B2, “Method of decreasing nitrate nitrogen and volatile organic compound in soil and groundwater” (Matsushita Electric Industrial Co., Ltd., priority 2001, dated 2006)
